Data set [1] relates to CD-1 male mice. The data set can be described thus: Formalin test. It is filed as in vivo. The note with it: s.c., 100 nmol, 15 min before formalin. An excerpt:
The formalin test involves moderate and continuous pain generated by an injured tissue, and the measured response is the time the animals spend licking the injected paw. […] The early phase is caused predominantly by δ-fiber activation, due to a direct effect on nociceptors, while the late phase appears to be an inflammatory response, involving the unmyelinated C-fibre[44].
CD-1 male mice (Harlan, Italy) weighing 25–30 g were used in all the experiments. Before the experimental sessions, the mice were maintained in colony, housed in cages (7 mice per cage) under standard light/dark cycle (from 7:00 AM to 7:00 PM), temperature (21 ± 1 °C) and relative humidity (60 ± 10%) for at least 1 week. Food and water were available ad libitum. […]
Subcutaneous injection of a dilute solution of formalin (1%, 20 μL/paw) into the mice hind paw evoked nociceptive behavioural responses, such as licking, biting the injected paw or both, which are considered indices of nociception. […] The total time the animal spent licking or biting its paw during the early and late phase of formalin-induced nociception was recorded. […]

For data set [2] the following is noted: cited from earlier work.
The subject of data set [3] is CD-1 male mice. Nature of the data set: Hot plate test (thermal nociception). The note with it: i.v., 23 μmol.kg−1, mice. The format is in vivo. On the technique in general: In hot-plate and tail-flick tests a longer latency is read as antinociception.
Data set [4] deals with T1, human KOP (Homo sapiens, UniProt P41145).
T1 construct: expressed in transfected cells; host or cells: CHO cells (membrane preparations)
The data set can be described thus: 35S-GTPγS coupling assay, KOP. It is filed as biochemical. On the set-up: Emax: dose or concentration left out as unconfirmed. The note with it: for Emax: read-out: KOP EMax (in parentheses). (In general: GTPγS is a poorly hydrolysed GTP analogue; its binding reports G protein activation.)

The target of data set [5] is T1, human KOP. The data set can be described thus: Competition radioligand binding vs 3H-diprenorphine, KOP.
Data set [6] can be described thus: Plasma stability assay. It is filed as in vitro ADME. The conditions noted are these: human plasma, 37 °C, read-out: degradation half-life (t1/2). Here is the method: A plasma stability assay was performed by incubation of compounds in human plasma at a chosen initial concentration (i.e. 5 μM) at 37 °C. The aliquots of the incubated plasma samples were taken at T0 (at the beginning) and at T2 (after 4 hours). Collected samples were spiked with cold acetonitrile to precipitate proteins and prevent the compound from further decomposition. The assay was repeated in triplicate. Plasma aliquots were centrifuged and the supernatant collected and analyzed by LC-MS technique. The instrument responses were referenced to the zero time-point sample (as 100%) in order to determine the percentage of compound remaining after incubation at a given time point. The half-life parameter was calculated from linear regression of time course data.
Plasma and working solutions of experimental and control compounds (at appropriate concentrations) were warmed to 37 °C. 99 µL of plasma was dispensed into a pre-labeled 96-well plate (in triplicate per time-point). Then 1 µL of test compound and reference compound were transferred to wells filled by plasma. 200 µL of cold acetonitrile was added immediately into wells marked as the ‘0’ time point to precipitate proteins and prevent compound from biotransformation. Plates were incubated in a thermostatic shaker at 37 °C while shaken at 350 rpm. […] Samples were analyzed using an LC-MS technique.

Data set [7] is described as follows: BBB PAMPA assay (porcine brain lipids).
On the set-up of data set [8]: method as in PMID 29513114. The note with it: cited from earlier work.
On the set-up of data set [9]: method as in PMID 25755050. The conditions noted are these: cited from earlier work.
Details of data set [10]: method as in PMID 25755050. The conditions noted are these: compared with morphine; cited from earlier work.
In data set [11] the test system is MOP. The note with it: MOP agonist activity; read-out: IC50 in the GPI assay; cited from earlier work.
Data set [12] deals with DOP. The conditions noted are these: read-out: IC50 in the MVD assay; DOP agonist activity; cited from earlier work.

Where two headings read alike, the source gives them in different places. Where a SMILES comes first, the peptide text is derived from it. Bridges are numbered along the chain shown (N, C = ends). Triazole bridges read from a SMILES are 1,4-linked. [ ]: non-standard residue; d: D form. dDap(N3) = [N-]=[N+]=NC[C@@H](N)C(=O)O; dPra = C#CC[C@@H](N)C(=O)O

One may read the EC50 as the midpoint of the concentration-response curve. Usually Emax stands for the greatest response seen or fitted, relative to the assay's reference. A word on the Ki: it is a dissociation constant, usually derived from enzyme kinetics or from competition with a known ligand. As usually defined, the IC50 is the point on the concentration scale where inhibition reaches its midpoint.

As to `CC1(C)SSC(C)(C)[C@@H](NC(=O)[C@@H](N)Cc2ccc(O)cc2)C(=O)NCC(=O)N[C@@H](Cc2ccccc2)C(=O)N[C@H]1C(=O)O` [DPDPE, (D-Pen^2,D-Pen^5)-Enkephalin], the “antinociceptive effect, formalin test, early and late phase” value in data set [1] was “slight but not significant antinociceptive effect”. Moreover, in data set [2] (i.c.v.), the “antinociception after i.c.v. administration” value is reported as “slightly active until 45 min”. Besides, the “antinociception after s.c. administration” value in data set [2] (s.c.) was “completely inactive”. The “antinociceptive effect (nociceptive threshold), hot plate” value in [3] is “ineffective”.

For `NC(=O)[C@H]1Cn2cc(nn2)C[C@@H](NC(=O)[C@@H](N)Cc2ccc(O)cc2)C(=O)NCC(=O)N[C@@H](Cc2ccccc2)C(=O)N1` [NOVA1, H-Tyr-c[DPra-Gly-Phe-DAza]-NH2 triazole] (H-Y[dPra]GF[dDap(N3)]-NH2; triazole 2-5), in [4], the EC50 was more than 3.33 µM and the Emax is 56.7 ± 5.4%. This compound came in with a Ki in [5] of more than 3.33 µM.

With `NC(=O)[C@H]1Cc2cn(nn2)C[C@@H](NC(=O)[C@@H](N)Cc2ccc(O)cc2)C(=O)NCC(=O)N[C@@H](Cc2ccccc2)C(=O)N1` [NOVA2, H-Tyr-c[DAza-Gly-Phe-DPra]-NH2 triazole] (H-Y[dDap(N3)]GF[dPra]-NH2; triazole 2-5), the half-life at 5 μM in [6] is more than 240 min. In data set [7] (PAMPA), the “Mean (%) Mass balance” value is 102.22% and the “Pe value relative to negative control theophylline” value was “two-fold higher”. Further, the Classification result in data set [7] (PAMPA BBB permeation class) is recorded as “Low permeation (Pe<2.0→lowpermeation)”. Besides, in data set [4], the EC50 was more than 3.33 µM and the Emax was 68.3 ± 5%. This compound came in with a Ki in data set [5] of more than 3.33 µM.

Consider Dmt-c[D-Lys-Phe-p-CF3-Phe-Asp]NH2 [F18], for which the Classification entry in [8] (PAMPA BBB permeation class) is reported as “Low permeation (Pe<2.0→lowpermeation)”. The “Mean (%) Mass balance” value in data set [8] (PAMPA) is given as 95.75%.

On to Tyr-c^2,4[DLys-Phe-Dab]-CH2CH2NHCONH2, for which, in data set [9], the enzymatic degradation result is reported as “resistant to enzymatic degradation”. Further, the antinociceptive response entry in [10] was “stronger antinociceptive response than that of morphine”.

With “cyclo(N^ε,N^β’-carbonyl-D-Lys^2,Dap^5)-enkephalinamide”, the IC50 in data set [11] is 0.21 nM; in data set [12], 0.65 nM.

The values are drawn from publication PMC6453917, “On resin click-chemistry-mediated synthesis of novel enkephalin analogues with potent anti-nociceptive activity” (Scientific Reports, 2019).
